Results published in patent publication US20120309821A1, “Use of epigallocatechin-3-gallate for immune regulation” (NATIONAL DEFENSE MEDICAL CENTER, priority 2011, published 2012).

How the values were obtained:
Type in all cases: in vivo, mouse
[1] = tested on: NZB/W F1 lupus-prone mice; test: Urine protein time course in NZB/W F1 lupus-prone mice; conditions: 120 mg/kg EGCG by gavage daily from 12 weeks of age; weeks 28-34; vs disease control mice
Experimental: (§1) Female NZB/W F1 mice were purchased from the Animal Center of the National Taiwan University (Taipei, Taiwan, ROC) and, at 12 weeks of age, were divided into two groups, one of which was given normal saline and served as the disease control, while the other was given 120 mg/kg body weight of EGCG (Ryss Lab, Inc., CA, USA) (this dose is a slight modification of those used in previous in vivo studies) by gavage daily till sacrificed at 34-weeks-old. 8-Week-old NZB/W F1 female mice (prior to onset of autoantibody production) were used as normal controls. Urine samples were collected in metabolic cages every 2 weeks and urine protein levels were measured, and serum samples were used to measure serum levels of blood urea nitrogen (BUN) and creatinine (Cr) as described previously (Ka, S. M. et al. Decoy receptor 3 ameliorates an autoimmune crescentic glomerulonephritis model in mice. J Am Soc Nephrol 18:2473-2485; 2007). All animal experiments were performed upon the ethical approval of the Institutional Animal Care and Use Committee of the National Defense Medical Center, Taiwan and according to the ethical rules in the NIH Guide for the Care and Use of Laboratory Animals.

[2] = tested on: NZB/W F1 lupus-prone mice; test: Serum BUN and creatinine (renal function) in NZB/W F1 mice; conditions: 120 mg/kg by gavage daily; week 34; vs disease control mice
Experimental: as §1

[3] = tested on: anti-dsDNA antibodies; test: Serum anti-dsDNA antibody ELISA; conditions: 120 mg/kg by gavage daily; week 34; increase over normal control
Experimental: as §1, with “[…] Serum levels of anti-dsDNA antibodies” for “All animal experiments”, “measured using an anti-mouse dsDNA enzyme-linked immunosorbent assay (ELISA) kit (Alpha Diagnostic, TX, USA)” for “performed upon the ethical approval of the Institutional Animal Care and Use Committee of the National Defense Medical Center, Taiwan and”, “manufacturer's instructions. The absorbance at 450 nm was measured using an ELISA plate reader (Bio-Tek, VT, USA).” for “ethical rules in the NIH Guide for the Care and Use of Laboratory Animals.”

[4] = tested on: NF-κB p65; test: Renal nuclear NF-κB p65 activation ELISA (TransAM); conditions: 120 mg/kg by gavage daily; week 34; increase seen in disease control
Experimental: as §1, with “All animal experiments were performed upon the ethical approval of the Institutional Animal Care and Use Committee of the National Defense Medical Center, Taiwan and according to the ethical rules in the NIH Guide for the Care and Use of Laboratory Animals.” left out
Nuclear protein from renal cortex was extracted using a Nuclear Extract Kit (Active Motif) according to the manufacturer's instructions and nuclear NF-κB p65 activation quantified using an ELISA-based TransAM NF-κB kit (Active Motif, Tokyo, Japan) according to the manufacturer's protocol by reading the absorbance on an ELISA plate reader (Bio-Tek, VT, USA) at 450 nm with a reference wavelength of 655 nm.

[5] = tested on: NLRP3 mRNA; test: Renal NLRP3 mRNA by real-time PCR; conditions: 120 mg/kg by gavage daily; week 34; increase seen in disease control
Experimental: as §1

[6] = tested on: CD3+CD69+ cells (activated T cells); test: T cell activation in splenocytes by flow cytometry; conditions: 120 mg/kg by gavage daily; week 34; increase seen in disease control
Experimental: as §1, with “Animals. […]” for “Animals.”

Substance: Epigallocatechin-3-gallate [EGCG]
- urine protein levels [1]: markedly inhibited
- serum levels of BUN [2]: significantly lower
- serum levels of Cr [2]: significantly lower
- serum anti-dsDNA antibody levels [3]: not inhibited
- nuclear NF-κB p65 levels (ELISA, renal nuclear protein extracts) [4]: significantly inhibited
- levels of NLRP3 mRNA in kidney tissues [5]: inhibited
- percentage of CD3+CD69+ cells (activated T cells) in CD3+ splenocytes [6]: not inhibited
